In one test the test system is Ustilago zeae. Particulars: cited from earlier work.
The next test has as its system bacteria or prokaryotes. Particulars: cited from earlier work.
Test [1] relates to MF-ACC purified from Ustilago maydis. Particulars: cited from earlier work.
The test system of test [2] is acetyl-CoA carboxylase (ACC) of yeast and filamentous fungi. Particulars: cited from earlier work.
The next test has as its target T1, MS-ACC from E. coli (Escherichia coli, UniProt P24182).
T1 construct: expressed in transfected cells; host or cells: Pichia pastoris GS115 transformed with pAO815-ACC4 (strain HWA4)
As to the kind of experiment: Sensitivity of prokaryotic MS-ACC to inhibition.

The subject of test [3] is MF-ACC purified from rat liver. Particulars: cited from earlier work.
For test [4], the system named is filamentous fungi and yeasts. Particulars: growth of numerous filamentous fungi and yeasts; cited from earlier work.
The subject of test [5] is Pichia pastoris transformant HWA3. Nature of the test: Soraphen A sensitivity of transformant HWA3 (accA, accC, accD) on MM plates. Particulars: 30° C., six days. It is filed as cell-based. On the procedure: (§1) Transformation of spheroplasts was carried out with 10 μg of Sal I-linearized plasmid pAO815-ACC3 or pAO815-ACC4 following the manufacturer's instructions. Transformants were selected on RDB plates and in a second selection round the obtained histidine prototroph clones were tested for Soraphen A sensitivity on MM plates containing Soraphen A (0-0.1 μg/ml).

The test system of test [6] is Pichia pastoris transformant HWA3p. Particulars: MM plates, 30° C., six days.
Procedure: For transformation by electroporation, 3-12 μg of Sal I-linearized plasmid pPIC3.5K-BCCP was mixed with the competent cells and pulsed in 0.1 cm electroporation cuvettes at 1.5 kV, 25 μF, and 200Ω using a Gene Pulser (Bio-Rad). Immediately after the pulse, 1 ml of 1 M sorbitol was added to the cuvette and the cells were incubated for regeneration for 1 hour at room temperature. The cell suspension was aliquoted into two sterile Eppendorf tubes, 0.5 ml of YPD medium or MM medium was added, respectively, and the cells were incubated for 3 more hours at room temperature thereby being shaked. 50-200 μl of the aliquotes in YPD were spread on YPD-G418 plates to select G418 resistant transformants, whereas aliquots in MM medium were spread on MM-agar containing 0.02 μg/ml Soraphen A.
Histidine prototrophic or G418 resistant transformants were grown overnight in 20 ml MM medium. The cells were harvested by centrifugation and spotted onto MM plates containing different concentrations of Soraphen A (0-0.1 μg/ml). Duplicated plates were incubated at 30° C. for six days under daily addition of methanol.
Test [7] relates to Pichia pastoris strain GS115. Nature of the test: Soraphen A sensitivity of recipient strain GS115 on MM plates. It is filed as cell-based. Particulars: point and surface inoculation, 30° C., six days. The procedure: Two methods were used to determine the concentration of Soraphen A inhibitory to the growth of P. pastoris GS115. On the one hand MM plates containing 0 to 0.1 μg/ml Soraphen A were locally inoculated with 10^6 to 10^2 cells. On the other hand 5000 cells were streaked onto such plates. Inokulations were incubated in duplicate at 30° C. for six days; 100 μl of 100% methanol was added daily to the lid of the inverted plates.

Test [8] concerns Pichia pastoris transformant HWA4. As to the kind of experiment: Soraphen A sensitivity of transformant HWA4 (accA-D) on MM plates. The class given is cell-based. Particulars: 30° C., six days. On the procedure: as §1
Another test deals with Mucor hiemalis. Particulars: cited from earlier work.

Data on one compound can be found in US8088623B2, “Dominant selection marker for the transformation of fungi” (priority 2003, dated 2012).

Values after ≈ are worked out from the molar mass of the structure shown. Some results are limits rather than exact numbers.

Regarding `CO[C@H]1CCCC[C@@H](c2ccccc2)OC(=O)[C@@H](C)[C@@]2(O)O[C@H]([C@@H](C)[C@H](O)[C@H]2OC)[C@@H](C)/C=C/[C@H]1OC` [Soraphen A], the MIC value in the test with Ustilago zeae is 4 µg/mL (≈ 7.68 µM); with Mucor hiemalis it was 0.03 µg/mL (≈ 0.0576 µM). Moreover, the “sensitivity to Soraphen” value in the test with bacteria or prokaryotes is on record as “generally not sensitive”. Moreover, the “inhibition of MF-ACC activity in vitro” value in test [1] and in [3] was “inhibit” throughout. For the same compound, in [2], the “inhibition of acetyl-CoA carboxylase (ACC) activity” value is “inhibits”. Besides, on MS-ACC from E. coli, the “sensitivity of MS-ACC to inhibition by Soraphen A” value is listed as “insensitive”. Moreover, the MIC values entry in test [4] is “below 1 ug/ml”. Moreover, the “Soraphen A concentration giving no growth” value in [5] is no more than 0.02 µg/mL. In addition, the “Soraphen A concentration up to which resistance is fully developed” value in test [6] is greater than 0.1 µg/mL. Besides, the “Soraphen A concentration leading to complete inhibition of growth” value in test [7] is no more than 0.02 µg/mL. For the same compound, in test [8], the “Soraphen A concentration not inhibiting growth (undiminished growth)” value is greater than 0.1 µg/mL.
